# In US20250066287A1, “PHASE CHANGE AROMATIC AZO COMPOUNDS, METHOD OF MANUFACTURE, AND USE AS HOMOGENOUS CATALYST” (priority 2023, published 2025):
# “And” between values parts separate entries of the source, which are not always exact repeats. Equal values may be shown once. Read-outs that look alike come from different tables or passages of the source.
# Tests used:
# [1] = Photoswitching between E and Z (UV-vis, photostationary state); assay type: physicochemical; settings: dilute solution; compound 1 in acetonitrile, compound 2 in methanol
# Experimental: To find solvents in which the ratio between the maximum concentrations of Z and E isomers at the respective photostationary state (PSS) (i.e., r=[Z]max/[E]max) is the greatest, a solvent screening test for each compound was performed (FIGS. 21-24).
# (§1) Ultraviolet-visible (UV-Vis) absorption spectra were obtained with a Cary 50 Bio UV-Vis spectrophotometer in a UV Quartz cuvette with a path length of 10 mm. Compounds were dissolved in solvents at a concentration of 0.0125 mg/ml unless otherwise specified. The UV-Vis absorption was first recorded in dark for 5 min, then samples were irradiated with a specified wavelength until no change in their absorbance was observed. Samples were irradiated with Thorlabs LEDs: M340L4 (340 nm, 2.22 μW/mm^2, 60 mW), M430L4 (430 nm, 35.3 μW/mm^2, 600 mW).
# [2] = Absorption coefficient of reactants, products and catalysts (UV-Vis); assay type: physicochemical
# Experimental: as §1, with “mW). […]” for “mW).”
# [3] = pristine azobenzene; cited from earlier work
# [4] = Thermal reversion kinetics measurements (Z-to-E); assay type: physicochemical; settings: 1 in MeCN, 2 in MeOH; for τ1/2 (thermal half-life of Z isomer): Z-to-E thermal reversion at 298 K (room temperature); for ΔG^‡ / ΔH^‡ / ΔS‡: thermal isomerization of Z isomers at 298 K
# Experimental: Thermal reversion kinetics measurements. The thermal half-life of compounds 1 and 2 were determined by following a reported procedure (G. D. Han, et all., J. Mater. Chem. A 2016, 4, 16157-16165). A solution of compounds 1 or 2 (˜1.7×10^−5 M) were prepared in MeCN and MeOH, respectively, then irradiated at 340 nm to obtain a Z-rich solution at photostationary state (PSS), which was then heated at three different elevated temperatures (compound 1: 333 K, 338 K, 343 K; compound 2: 318 K, 323 K, 328 K) in dark.
# [5] = Kinetic tests of Henry reaction; settings: for product yield: pre-activated Z, 24 hours; for rate constant kZ: pre-activated soluble Z
# [6] = Solvent screening for reversible solubility changes; settings: 0.5 mg in 1 mL; irradiation of 340 nm and 430 nm
# Experimental: To determine solubility, 0.5 mg of compounds were added to 1 mL of common solvents (1-MeOH, 2-acetonitrile (MeCN), 3-acetone, 4-THF, 5-hexane, 6-EtOAc, 7-DMF, 8-DMSO, and 9-toluene, respectively). […] The samples with suspensions were then stirred overnight under 340 nm irradiation. […] These samples were then stirred for 4 hours under 430 nm to trigger the precipitation of the compounds.
# [7] = Light-induced precipitation of catalysts from pristine solvent; assay type: physicochemical; settings: within 10 min of 430 nm irradiation; 1 in acetonitrile, 2 in methanol
# Experimental: FIG. 6 and FIG. 25 illustrate the efficiencies of 430 nm induced catalyst precipitation and recovery for compounds 1 and 2, which were obtained by weighing the filtered precipitates after irradiation. […] The full recovery of the catalysts is limited by the PSS ratios of compounds at 430 nm (82% for 1- E and 84% for 2-E).
# Light-induced precipitation of catalysts. To determine light-induced precipitation of catalysts, 44 mg of compound 1 and 34 mg of compound 2 were added to 2 mL of acetonitrile and methanol, respectively. The suspensions were irradiated at 340 nm overnight to obtain clear Z solutions. Then, the solutions were irradiated at 430 nm and monitored over 10 min.
# [8] = Cycling tests of Michael addition reaction; settings: Michael addition in acetonitrile; after the subsequent two reactions with recovered catalyst, 10 mol % loading
# [9] = Cycling tests of Henry reaction; settings: acetonitrile
# [10] = Michael addition in acetonitrile; in 10 hours
# Experimental: For compound 1: To a solution of trans-β-nitrostyrene (11.1 mg, 7.5 μmol) and acetylacetone (7.6 mg, 7.5 μmol) in MeCN (0.25 mL) was added either insoluble E isomer or pre-activated Z isomer of compound 1 (5.4 mg, 0.75 μmol). Three identical samples were prepared. 0.2 mL of the solution was taken to check the product yield via ^1H NMR at each time point.
# [11] = Quantification of solubility of E and Z isomers in select solvents; settings: for Isomer (% E): saturated solution after 340 nm irradiation
# Experimental: Quantification of solubility. […] The mixtures were sonicated for 5 min. The obtained suspensions were filtered with a PTFE filter to remove the excess solids. The solvents in clear filtrates were removed using a rotary evaporator and the solutes were dried under vacuum overnight.
# wherein [Z]max and [E]max are the maximum concentration of the Z-isomer and the E-isomer, respectively.
# [12] = Henry reaction, 1 in acetonitrile, 2 in methanol
# [13] = MeCN, Z-rich after 340 nm irradiation overnight
# [14] = Toluene, Z-rich after 340 nm irradiation overnight
# [15] = EtOAc, Z-rich after 340 nm irradiation overnight
# [16] = MeOH, Z-rich after 340 nm irradiation overnight
smiles,measurement,setting,value
CN(CCCNC(=O)c1ccc(-c2ccc(C(=O)NCCCN(C)CCc3ccc(/N=N/c4ccccc4)cc3)cc2)cc1)CCc1ccc(/N=N/c2ccccc2)cc1 [Compound 2-E],% E after irradiation at 430 nm (PSS),[1],84 % E
same,ε340 nm,[2]; MeOH,25623 M⁻¹ cm⁻¹ and 25623.3 M⁻¹ cm⁻¹
same,ε430 nm,[2]; MeOH,2375.3 M⁻¹ cm⁻¹
c1ccc(N=Nc2ccccc2)cc1 [azobenzene],% E at 430 nm (photoswitching property),[3],83 % E
CN(CCCNC(=O)c1ccc(C(=O)NCCCN(C)CCc2ccc(/N=N/c3ccccc3)cc2)cc1)CCc1ccc(/N=N/c2ccccc2)cc1 [Compound 1-E],% E after irradiation at 430 nm (PSS),[1],82 % E
same,ε340 nm,[2]; MeCN,24004 M⁻¹ cm⁻¹ and 24004.3 M⁻¹ cm⁻¹
same,ε430 nm,[2]; MeCN,2336.5 M⁻¹ cm⁻¹
CN(CCCNC(=O)c1ccc(-c2ccc(C(=O)NCCCN(C)CCc3ccc(/N=N\c4ccccc4)cc3)cc2)cc1)CCc1ccc(/N=N\c2ccccc2)cc1 [Compound 2-Z],τ1/2 (thermal half-life of Z isomer),[4],84 h
same,product yield,[5]; [12],85%
same,rate constant kZ,[5]; [12],2.6e-05 s⁻¹
same,ε340 nm,[2]; MeOH,2937.1 M⁻¹ cm⁻¹
same,ε430 nm,[2]; MeOH,3632.2 M⁻¹ cm⁻¹
"CC(=O)CC(C)=O [Acetylacetone, acetylacetone]",ε340 nm,[2]; MeCN,2.4 M⁻¹ cm⁻¹
same,ε340 nm,[2]; MeOH,31.1 M⁻¹ cm⁻¹
"O=Cc1ccc([N+](=O)[O-])cc1 [Nitrobenzaldehyde, 4-nitrobenzaldehyde]",ε340 nm,[2]; MeCN,323.3 M⁻¹ cm⁻¹
same,ε340 nm,"[2]; MeCN, listed as 4-nitrobenzaldehyde",323 M⁻¹ cm⁻¹
same,ε340 nm,[2]; MeOH,312.5 M⁻¹ cm⁻¹
"O=[N+]([O-])/C=C/c1ccccc1 [Nitrostyrene, trans-β-nitrostyrene]",ε340 nm,[2]; MeCN,11327.3 M⁻¹ cm⁻¹
same,ε340 nm,"[2]; MeCN, listed as trans-β-nitrostyrene",11327 M⁻¹ cm⁻¹
same,ε340 nm,[2]; MeOH,15390.7 M⁻¹ cm⁻¹
CN(CCCNC(=O)c1ccc(C(=O)NCCCN(C)CCc2ccc(N=Nc3ccccc3)cc2)cc1)CCc1ccc(N=Nc2ccccc2)cc1 [Compound 1],% E after irradiation at 430 nm (PSS),[1],82 % E
same,% Z after irradiation at 340 nm (PSS),[1],~88 % Z
same,ideal solvent candidates for reversible solubility changes,[6],MeCN and toluene
same,% Z drop in the suspension,[7],75%
same,τ1/2 (thermal half-life of Z isomer),[4],199 h
same,ΔG^‡,[4],25.67 kcal/mol
same,ΔH^‡,[4],23.97 kcal/mol
same,ΔS‡,[4],−23.8 J mol^−1K^−1
same,% Z by in-situ UV-induced E→Z isomerization in the reaction medium,"[5]; Henry reaction mixture in acetonitrile, after 24-hour 340 nm irradiation",48 % Z
same,rate constant kE-UV,"[5]; Henry reaction, in-situ UV (340 nm) activated catalyst, 1 in acetonitrile, 2 in methanol",4.24e-06 s⁻¹
same,product yield,[8],82%
same,yield of product,[9]; 1st Henry reaction (16 hours),56%
same,yield of product,[9]; 2nd Henry reaction (16 hours),57%
same,yield of product,[9]; third Henry reaction (24 hours),70%
same,product yield of Z-rich catalyst compared to its E counterpart,[10],2.4 fold
same,r=[Z]max/[E]max,[11]; MeCN (acetonitrile),10.4 and 10.3
same,Solubility,"[11]; MeCN, E isomer (100% E)",2.1 g/L and 2.9 mM
same,Solubility,[11]; [13],22 g/L and 30 mM
same,Isomer (% E),[11]; MeCN,12 % E
same,r=[Z]max/[E]max,[11]; Toluene,2.8
same,Solubility,"[11]; Toluene, E isomer (100% E)",5.4 g/L and 7.5 mM
same,Solubility,[11]; [14],15 g/L and 21 mM
same,Isomer (% E),[11]; Toluene,17 % E
CN(CCCNC(=O)c1ccc(C(=O)NCCCN(C)CCc2ccc(/N=N\c3ccccc3)cc2)cc1)CCc1ccc(/N=N\c2ccccc2)cc1 [Compound 1-Z],τ1/2 (thermal half-life of Z isomer),[4],199 h
same,product yield,[5]; [12],about 70%
same,rate constant kZ,[5]; [12],1.37e-05 s⁻¹
same,ε340 nm,[2]; MeCN,6780.1 M⁻¹ cm⁻¹
same,ε430 nm,[2]; MeCN,2857.4 M⁻¹ cm⁻¹
CN(CCCNC(=O)c1ccc(-c2ccc(C(=O)NCCCN(C)CCc3ccc(N=Nc4ccccc4)cc3)cc2)cc1)CCc1ccc(N=Nc2ccccc2)cc1 [Compound 2],% E after irradiation at 430 nm (PSS),[1],84 % E
same,% Z after irradiation at 340 nm (PSS),[1],84 % Z
same,ideal solvent candidates for reversible solubility changes,[6],MeOH and EtOAc
same,% Z drop in the suspension,[7],75%
same,τ1/2 (thermal half-life of Z isomer),[4],84 h
same,ΔG^‡,[4],25.14 kcal/mol
same,ΔH^‡,[4],18 kcal/mol
same,ΔS‡,[4],−99.7 J mol^−1K^−1
same,rate constant kE-UV,[5],1.16×10 ^−5 s^−1
same,r=[Z]max/[E]max,[11]; EtOAc,6.0
same,Solubility,"[11]; EtOAc, E isomer (100% E)",2.4 g/L and 3.0 mM
same,Solubility,[11]; [15],14 g/L and 18 mM
same,Isomer (% E),[11]; EtOAc,14 % E
same,r=[Z]max/[E]max,[11]; MeOH (methanol),8.8
same,Solubility,"[11]; MeOH, E isomer (100% E)",1.9 g/L and 2.4 mM
same,Solubility,[11]; [16],17 g/L and 21 mM
same,Isomer (% E),[11]; MeOH,16 % E
CN(CCCNC(=O)c1ccc2cc(C(=O)NCCCN(C)CCc3ccc(N=Nc4ccccc4)cc3)ccc2c1)CCc1ccc(N=Nc2ccccc2)cc1 [Compound 3],ideal solvent candidates for reversible solubility changes,[6],MeOH and acetone
same,r=[Z]max/[E]max,[11]; Acetone,5.7
same,Solubility,"[11]; Acetone, E isomer (100% E)",3.8 g/L and 4.9 mM
same,Isomer (% E),[11]; Acetone,14 % E
same,r=[Z]max/[E]max,[11]; MeOH (methanol),4.0
same,Solubility,"[11]; MeOH, E isomer (100% E)",3.9 g/L and 5.0 mM
same,Solubility,[11]; [16],16 g/L and 20 mM
same,Isomer (% E),[11]; MeOH,27 % E
CN(CCCNC(=O)CCCC#CC#CCCCC(=O)NCCCN(C)CCc1ccc(N=Nc2ccccc2)cc1)CCc1ccc(N=Nc2ccccc2)cc1 [Compound 4],ideal solvent candidates for reversible solubility changes,[6],no solvent is ideal
same,r=[Z]max/[E]max,[11]; EtOAc,9.4
same,Solubility,"[11]; EtOAc, E isomer (100% E)",2.6 g/L and 3.3 mM
same,Solubility,[11]; [15],24 g/L and 31 mM
same,Isomer (% E),[11]; EtOAc,23 % E
same,r=[Z]max/[E]max,[11]; MeCN (acetonitrile),10.0
same,Solubility,"[11]; MeCN, E isomer (100% E)",3.3 g/L and 4.3 mM
same,Solubility,[11]; [13],33 g/L and 43 mM
same,Isomer (% E),[11]; MeCN,9 % E
same,r=[Z]max/[E]max,[11]; Toluene,13.9
same,Solubility,"[11]; Toluene, E isomer (100% E)",2.6 g/L and 3.3 mM
same,Solubility,[11]; [14],36 g/L and 46 mM
same,Isomer (% E),[11]; Toluene,55 % E
"CC[N+](=O)[O-] [Nitroethane, nitroethane]",ε340 nm,[2]; MeCN,0.3 M⁻¹ cm⁻¹
same,ε340 nm,[2]; MeOH,1.3 M⁻¹ cm⁻¹
